One experiment relates to H358 NSCLC cells. As to the kind of experiment: MTT assay of live cells after drug treatment of H358 cells with c-CBL knockdown. The experiment is classed as cell-based. The settings on record: H358 clone 27 cells, 72 h after drug treatment. On the procedure: H358 clone 27 cells expressing high levels of c-CBL were knocked down using a lentiviral construct (sh 27). Cells were treated with the indicated RTK inhibitors, PI-3K inhibitors or cisplatin (CDDP). Live cells were assessed 72 h after drug treatment using a MTT assay.
The effects of silencing wt c-CBL in combination with a variety of drugs that inhibit EGFR (erlotinib [Tarceva]), PI-3K (NVP, Wortmanin), MET (SU11274) on the growth of H358 NSCLC cells that endogenously express c-CBL-Wt were investigated. The H358 cells, which expressed high levels of c-CBL, were knocked down using a lentiviral construct (sh 27, directed against c-CBL-Wt in H358 clone 27 cells (black), or the sh SCR scrambled RNA control (white)). Cells were treated with RTK and P1-3K inhibitors, cisplatin (CDDP). Live cells were assessed 72 hours after drug treatment using an MTT assay.
On the technique in general: Tetrazolium assays rely on reduction of a dye to a coloured formazan, in cell work by metabolically active cells.

Another experiment relates to Met kinase. The settings on record: cited from earlier work.
A further experiment deals with A549 cells. Put plainly: Cell survival of c-CBL wild type and mutant transfectants after treatment with c-Met and EGFR inhibitors (cell counting). The experiment is classed as cell-based, Human. Conditions: for sensitivity (cell survival) of c-CBL mutant versus wild type c-CBL transfected cells: A549 cells transiently transfected with c-CBL WT or mutants SH, Q, V, W*, different concentrations, 48 h treatment. On the procedure:
A549 and H226 cells were transiently transfected with empty vector (EV) or c-CBL wild type (WT) and mutants' constructs (SH: S80N/H94Y, Q: Q249E, V: V391I, W*: W802*). At 24 h, cells were recollected and seeded 5×10^4 cells/well in 24 well culture plate. Another 24 h, cells were treated with c-Met inhibitor SU11274 and EGFR inhibitor Tarceva in different concentrations. Cell survival was detected by cell counting after 48 h treatment.

The test system of another experiment is EGFR. Conditions: refractory advanced NSCLC; cited from earlier work.

The values below come from patent US11390922B2, “C-CBL mutations and uses thereof” (University of Chicago, priority 2010, dated 2022).

Structures are written as SMILES. Entries after “also recorded” stand apart in the source; their conditions may differ.

On to `Cc1[nH]c(/C=C2\C(=O)Nc3ccc(S(=O)(=O)N(C)c4cccc(Cl)c4)cc32)c(C)c1C(=O)N1CCN(C)CC1` [SU11274], for which the “live cells: c-CBL-Wt knockdown (sh 27) versus scrambled shRNA control” value in the experiment with H358 NSCLC cells is reported as “silencing c-CBL-Wt significantly reduced the ability of SU11274 (also referred to as SU) to kill NSCLC cells”. Further, the “cell growth, cell cycle and apoptosis” value with Met kinase was “time- and dose-dependent reduced cell growth and induced G1 cell cycle arrest and apoptosis”. Also, the Met kinase autophosphorylation result in the experiment on Met kinase (sites important for PI3K and Ras pathway activation) is recorded as “reduced”. Further, in the experiment on A549 cells (1 μM SU11274, mutants S80N/H94Y, Q249E, V391I, W802* (FIG. 23)), the “sensitivity of A549 cells containing c-CBL mutants versus wild type c-CBL” value was “c-CBL mutants are more sensitive than wild type c-CBL”. Further, the “sensitivity (cell survival) of c-CBL mutant versus wild type c-CBL transfected cells” value in the experiment with A549 cells is “had more sensitivity to the c-Met inhibitor SU11274; also recorded: c-CBL mutants had more sensitivity to c-Met inhibitor SU11274 than wild type c-CBL”.

For the compound `C#Cc1cccc(Nc2ncnc3cc(OCCOC)c(OCCOC)cc23)c1` [Tarceva, erlotinib], the “response to EGFR blockade” value with EGFR is given as 5-15%. Further, the “sensitivity (cell survival) of c-CBL mutant versus wild type c-CBL transfected cells” value in the experiment on A549 cells is “no difference; also recorded: no differential effects”.
